Laboratory results: publication PMC8674921 (ACS Omega, 2021)

What was measured:
[1] = test system: hMAO-A; conditions: read-out: IC50 hMAO-A; selective hMAO-A inhibition; cited from earlier work
[2] = target: T1, human D4R (CHO-D4R membrane homogenates) (Homo sapiens, UniProt P21917); assay: Antagonist radioligand binding assay, D4 receptor; conditions: 50 μM kurarinone, [3H]methylspiperone, mean of duplicate
T1 sequence (P21917 1-419): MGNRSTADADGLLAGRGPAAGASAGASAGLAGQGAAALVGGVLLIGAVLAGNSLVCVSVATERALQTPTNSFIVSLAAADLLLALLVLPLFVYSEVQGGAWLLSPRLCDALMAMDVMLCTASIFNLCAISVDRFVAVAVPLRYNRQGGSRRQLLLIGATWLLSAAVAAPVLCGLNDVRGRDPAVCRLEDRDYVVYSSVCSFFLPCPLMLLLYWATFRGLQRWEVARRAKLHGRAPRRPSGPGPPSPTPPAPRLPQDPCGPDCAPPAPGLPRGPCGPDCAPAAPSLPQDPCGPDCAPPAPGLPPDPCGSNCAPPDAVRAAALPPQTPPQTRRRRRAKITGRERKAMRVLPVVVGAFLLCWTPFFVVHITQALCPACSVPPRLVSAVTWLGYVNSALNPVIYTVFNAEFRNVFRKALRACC

[3] = target: hD2L receptor (CHO-D2LR cells) (Homo sapiens, UniProt P14416); assay: Functional GPCR assay, intracellular calcium flux, hD2L; assay type: cell-based
Chain of hD2L receptor (CHO-D2LR cells) (P14416 whole entry): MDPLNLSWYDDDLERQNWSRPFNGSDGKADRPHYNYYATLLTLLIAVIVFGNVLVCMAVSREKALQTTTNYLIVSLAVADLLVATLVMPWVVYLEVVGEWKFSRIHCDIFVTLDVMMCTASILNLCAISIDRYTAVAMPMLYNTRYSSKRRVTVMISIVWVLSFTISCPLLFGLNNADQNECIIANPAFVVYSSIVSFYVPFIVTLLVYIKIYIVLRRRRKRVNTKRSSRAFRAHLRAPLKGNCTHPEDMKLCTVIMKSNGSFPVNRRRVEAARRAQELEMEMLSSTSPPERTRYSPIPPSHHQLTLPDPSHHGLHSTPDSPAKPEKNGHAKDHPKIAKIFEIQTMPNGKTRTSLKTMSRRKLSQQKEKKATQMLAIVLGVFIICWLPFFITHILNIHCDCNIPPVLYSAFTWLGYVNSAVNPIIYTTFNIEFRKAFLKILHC

[4] = target: T2, recombinant hMAO-B (Homo sapiens, UniProt P27338); assay: hMAO-B inhibitory assay; assay type: biochemical
T2 sequence (P27338 1-520): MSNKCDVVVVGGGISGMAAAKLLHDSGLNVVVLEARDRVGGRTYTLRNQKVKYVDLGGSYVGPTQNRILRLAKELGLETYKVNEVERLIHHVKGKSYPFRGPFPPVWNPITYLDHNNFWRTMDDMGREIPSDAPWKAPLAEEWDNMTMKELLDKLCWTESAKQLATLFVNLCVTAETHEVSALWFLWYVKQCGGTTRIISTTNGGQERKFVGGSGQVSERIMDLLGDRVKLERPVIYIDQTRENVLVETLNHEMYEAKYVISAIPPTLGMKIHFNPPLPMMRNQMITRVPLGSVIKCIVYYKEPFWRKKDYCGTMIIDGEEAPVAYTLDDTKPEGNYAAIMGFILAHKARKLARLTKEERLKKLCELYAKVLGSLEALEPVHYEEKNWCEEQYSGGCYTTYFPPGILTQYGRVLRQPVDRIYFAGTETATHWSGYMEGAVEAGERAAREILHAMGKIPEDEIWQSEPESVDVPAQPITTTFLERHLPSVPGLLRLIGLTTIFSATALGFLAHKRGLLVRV

[5] = target: T3, recombinant hMAO-A (Homo sapiens, UniProt P21397); assay: hMAO-A inhibitory assay; assay type: biochemical
T3 sequence (P21397 1-527): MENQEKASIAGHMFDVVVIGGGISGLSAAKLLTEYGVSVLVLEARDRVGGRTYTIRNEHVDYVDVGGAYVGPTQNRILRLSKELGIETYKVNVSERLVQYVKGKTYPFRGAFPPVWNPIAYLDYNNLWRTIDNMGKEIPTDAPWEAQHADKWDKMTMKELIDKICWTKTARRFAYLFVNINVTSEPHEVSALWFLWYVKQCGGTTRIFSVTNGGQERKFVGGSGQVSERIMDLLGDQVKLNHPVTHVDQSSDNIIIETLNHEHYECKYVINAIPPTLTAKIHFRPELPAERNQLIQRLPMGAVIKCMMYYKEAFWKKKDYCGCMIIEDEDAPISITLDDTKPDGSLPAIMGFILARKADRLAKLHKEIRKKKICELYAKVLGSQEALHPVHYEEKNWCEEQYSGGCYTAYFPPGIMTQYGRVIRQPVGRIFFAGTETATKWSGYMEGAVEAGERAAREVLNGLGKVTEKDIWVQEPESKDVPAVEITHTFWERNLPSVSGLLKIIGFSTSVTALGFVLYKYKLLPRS

[6] = test system: BACE 1; conditions: read-out: IC50 BACE 1; cited from earlier work
[7] = target: hD1 receptor (CHO-D1R cells) (Homo sapiens, UniProt P21728); assay: Functional GPCR assay, cAMP level; assay type: cell-based
Chain of hD1 receptor (CHO-D1R cells) (P21728 whole entry): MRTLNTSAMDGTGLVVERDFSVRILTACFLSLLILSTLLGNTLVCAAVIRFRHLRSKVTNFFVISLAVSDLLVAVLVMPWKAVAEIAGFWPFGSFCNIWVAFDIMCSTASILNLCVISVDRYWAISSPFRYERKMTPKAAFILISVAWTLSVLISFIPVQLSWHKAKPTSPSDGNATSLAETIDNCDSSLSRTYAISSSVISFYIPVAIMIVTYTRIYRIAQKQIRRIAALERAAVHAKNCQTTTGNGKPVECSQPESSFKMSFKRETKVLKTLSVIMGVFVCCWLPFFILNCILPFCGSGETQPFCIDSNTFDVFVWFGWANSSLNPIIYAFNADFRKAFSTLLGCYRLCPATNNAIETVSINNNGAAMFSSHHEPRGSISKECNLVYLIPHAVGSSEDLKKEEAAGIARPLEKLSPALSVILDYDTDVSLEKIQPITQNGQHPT

[8] = target: GABAA receptors; conditions: read-out: EC50 GABAA receptors modulating effect; cited from earlier work
[9] = test system: BChE; conditions: read-out: IC50 BChE; cited from earlier work
[10] = test system: AChE; conditions: read-out: IC50 AChE; cited from earlier work
[11] = target: human V1AR (recombinant CHO-V1AR membrane homogenates) (Homo sapiens, UniProt P37288); assay: Agonist radioligand binding assay, vasopressin V1A receptor; conditions: read-out: % inhibition of control-specific binding
Chain of human V1AR (recombinant CHO-V1AR membrane homogenates) (P37288 whole entry): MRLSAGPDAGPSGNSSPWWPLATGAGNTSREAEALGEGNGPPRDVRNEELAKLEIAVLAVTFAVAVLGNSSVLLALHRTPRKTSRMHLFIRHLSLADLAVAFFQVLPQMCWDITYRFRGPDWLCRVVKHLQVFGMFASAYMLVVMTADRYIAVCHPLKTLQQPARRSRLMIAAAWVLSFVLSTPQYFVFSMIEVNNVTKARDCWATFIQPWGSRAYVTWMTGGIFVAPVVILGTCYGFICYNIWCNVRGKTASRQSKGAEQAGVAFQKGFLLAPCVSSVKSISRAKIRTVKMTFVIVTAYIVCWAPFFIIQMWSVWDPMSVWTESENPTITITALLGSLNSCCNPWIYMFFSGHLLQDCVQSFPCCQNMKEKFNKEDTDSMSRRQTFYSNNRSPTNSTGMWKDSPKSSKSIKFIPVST

[12] = target: human D1R (recombinant CHO-D1R membrane homogenates) (Homo sapiens, UniProt P21728); assay: Antagonist radioligand binding assay, D1 receptor; conditions: 50 μM kurarinone, [3H]SCH-23390, mean of duplicate
Chain of human D1R (recombinant CHO-D1R membrane homogenates) (P21728 whole entry): as the sequence (P21728 whole entry) above

[13] = target: human D3R (CHO-D3R membrane homogenates) (Homo sapiens, UniProt P35462); assay: Antagonist radioligand binding assay, D3 receptor; conditions: read-out: % inhibition of control-specific binding
Chain of human D3R (CHO-D3R membrane homogenates) (P35462 whole entry): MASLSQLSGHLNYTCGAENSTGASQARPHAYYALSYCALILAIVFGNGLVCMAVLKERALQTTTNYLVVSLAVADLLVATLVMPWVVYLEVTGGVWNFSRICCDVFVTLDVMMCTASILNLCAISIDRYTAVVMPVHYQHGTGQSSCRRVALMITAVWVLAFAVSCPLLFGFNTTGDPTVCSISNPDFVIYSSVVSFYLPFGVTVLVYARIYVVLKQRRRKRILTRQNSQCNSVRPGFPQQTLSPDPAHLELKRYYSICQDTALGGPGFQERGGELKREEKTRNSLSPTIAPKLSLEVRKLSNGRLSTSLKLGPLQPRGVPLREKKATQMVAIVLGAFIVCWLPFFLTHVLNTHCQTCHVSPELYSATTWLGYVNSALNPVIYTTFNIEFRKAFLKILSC

[14] = target: T4, h5-HT1A receptor (Ba/F3-5-HT1AR cells) (Homo sapiens, UniProt P08908); assay: Functional GPCR assay, intracellular calcium mobilization, h5-HT1A
T4 sequence (P08908 1-422): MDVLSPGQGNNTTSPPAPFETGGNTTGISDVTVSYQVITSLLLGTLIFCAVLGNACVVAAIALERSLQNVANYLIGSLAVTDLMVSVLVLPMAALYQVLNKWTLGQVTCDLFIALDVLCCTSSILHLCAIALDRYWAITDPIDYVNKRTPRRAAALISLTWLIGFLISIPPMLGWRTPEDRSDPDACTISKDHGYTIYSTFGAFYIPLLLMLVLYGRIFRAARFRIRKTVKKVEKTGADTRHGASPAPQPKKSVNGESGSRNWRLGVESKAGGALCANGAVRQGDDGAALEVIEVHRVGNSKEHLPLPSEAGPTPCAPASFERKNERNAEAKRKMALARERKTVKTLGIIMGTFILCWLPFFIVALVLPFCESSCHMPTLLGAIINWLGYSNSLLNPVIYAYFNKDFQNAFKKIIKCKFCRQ

[15] = target: T5, hD4 receptor (CHO-D4R cells) (Homo sapiens, UniProt P21917); assay: Functional GPCR assay, cAMP level; assay type: cell-based
T5 sequence (P21917 1-419): T1 sequence (P21917 1-419)

[16] = target: human D2LR (transfected HEK-293 membrane homogenates) (Homo sapiens, UniProt P14416); assay: Antagonist radioligand binding assay, D2L receptor; conditions: 50 μM kurarinone, [3H]methylspiperone, mean of duplicate
Chain of human D2LR (transfected HEK-293 membrane homogenates) (P14416 whole entry): as the sequence (P14416 whole entry) above

[17] = read-out: % inhibition of control agonist effect

C=C(C)[C@H](CC=C(C)C)Cc1c(O)cc(O)c2c1O[C@H](c1ccc(O)cc1O)CC2=O [sophoraflavone G]
IC50 [1]: 38.8 ± 1.1 µM

C=C(C)[C@H](CC=C(C)C)Cc1c(O)cc(OC)c2c1O[C@H](c1ccc(O)cc1O)CC2=O [kurarinone]
% inhibition of control-specific binding [2]: 71.1% | agonist response in antagonist mode assay ([3]; 100 μM, D2LR, antagonist mode): at least 25% | % stimulation of control agonist effect ([3]; 100 μM, hD2L, agonist mode, control 10 μM DA): 113 ± 28.9% | agonist or agonist-like effect flag in antagonist mode ([3]; 100 μM, hD2L, antagonist mode): AGO (the test compound induced at least 25% agonist or agonist-like effect at this concentration) | EC50 ([3]; EC50 (50% of control agonist effect), hD2L, agonist mode, mean ± S.D., duplicate): 22.4 ± 3.46 µM | inhibition at 100 µM [3, 17]: 43.8% | IC50 [4]: 198 ± 12.7 µM | Inhibition type hMAO-B ([4]; Lineweaver-Burk plots): mixed | IC50 [5]: 186 ± 6.17 µM | Ki ([5]; Ki hMAO-A, Dixon and secondary plots): 65.1 ± 3.53 µM | Inhibition type hMAO-A ([5]; Lineweaver-Burk plots): competitive | IC50 [6]: 24.5 ± 1.73 µM | % stimulation of control agonist effect ([7]; 100 μM, hD1, agonist mode, control 10 μM DA): 0.25 ± 0.64% | inhibition at 100 µM [7, 17]: 98.5% | EC50 [8]: 8.1 ± 1.4 µM | IC50 [9]: 5.29 ± 0.67 µM | IC50 [10]: 74.3 ± 7.85 µM | inhibition at 50 µM [11]: 47.6% | % inhibition of control-specific binding [12]: > 70% | % inhibition of control-specific binding ([12]; listed as Kurarinone): 99.1% | inhibition at 50 µM [13]: 49.2% | % stimulation of control agonist effect ([14]; 100 μM, h5-HT1A, agonist mode, control 0.625 μM 5-HT): 17.8 ± 1.13% | inhibition at 100 µM [14, 17]: 30.3% | EC50 [15]: 71.3 ± 4.94 µM | % stimulation of control agonist effect ([15]; 100 μM, hD4, agonist mode, control 1000 nm DA): 71.7 ± 6.36% | inhibition at 100 µM [15, 17]: -4.2% | % inhibition of control-specific binding [16]: 78.5%
